# From ChEMBL document CHEMBL1909046, “DrugMatrix in vitro pharmacology data”
# Experiments:
# [1] = target: Insulin receptor (Rattus norvegicus, UniProt P15127); assay type: cell membranes, Wistar, Liver, Membrane; further: in other assays of this panel Not Active means under 50% inhibition at 10 µM
# [2] = target: T1, Amine oxidase [flavin-containing] A (Homo sapiens, UniProt P21397); experiment: DRUGMATRIX: Monoamine Oxidase MAO-A enzyme inhibition (substrate: Kynuramine); design: species or system BTI-TN-5B1-4; settings: bti-tn-5b1-4; Not Active = under 50% inhibition at 10 µM
# T1 sequence (P21397 whole entry): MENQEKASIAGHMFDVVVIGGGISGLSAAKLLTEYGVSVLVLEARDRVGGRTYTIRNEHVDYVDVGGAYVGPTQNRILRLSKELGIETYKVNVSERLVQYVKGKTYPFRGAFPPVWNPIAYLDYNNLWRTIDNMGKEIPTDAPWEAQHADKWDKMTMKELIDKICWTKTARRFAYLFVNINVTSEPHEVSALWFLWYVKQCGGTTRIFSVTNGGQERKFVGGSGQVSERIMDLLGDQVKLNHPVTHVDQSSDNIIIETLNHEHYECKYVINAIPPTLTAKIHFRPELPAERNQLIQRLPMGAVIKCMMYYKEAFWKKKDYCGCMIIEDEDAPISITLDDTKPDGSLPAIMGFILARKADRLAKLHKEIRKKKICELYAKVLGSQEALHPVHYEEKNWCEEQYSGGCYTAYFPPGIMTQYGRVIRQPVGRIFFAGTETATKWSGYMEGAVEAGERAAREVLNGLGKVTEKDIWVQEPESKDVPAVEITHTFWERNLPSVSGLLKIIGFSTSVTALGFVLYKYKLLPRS
# [3] = target: Epidermal growth factor receptor (Homo sapiens, UniProt P00533); experiment: DRUGMATRIX: Protein Tyrosine Kinase, EGF Receptor enzyme inhibition (substrate: Poly(Glu:Tyr)); assay type: cell-based, Insect cells; settings: insect cells; Not Active = under 50% inhibition at 10 µM
# [4] = target: 5-hydroxytryptamine receptor 6 (Homo sapiens, UniProt P50406); assay type: cell membranes, HeLa, Membrane; settings: hela; further: in other assays of this panel Not Active means under 50% inhibition at 10 µM
# [5] = DRUGMATRIX: Sigma2 radioligand binding (ligand: [3H] Ifenprodil); assay type: cell membranes, Rattus norvegicus, Wistar, Brain, Membrane; settings: Not Active = under 50% inhibition at 10 µM
# [6] = target: T2, Cholecystokinin receptor type A (Homo sapiens, UniProt P32238); assay type: cell membranes, Membrane; settings: 1321-n1; further: in other assays of this panel Not Active means under 50% inhibition at 10 µM
# T2 sequence (P32238 whole entry): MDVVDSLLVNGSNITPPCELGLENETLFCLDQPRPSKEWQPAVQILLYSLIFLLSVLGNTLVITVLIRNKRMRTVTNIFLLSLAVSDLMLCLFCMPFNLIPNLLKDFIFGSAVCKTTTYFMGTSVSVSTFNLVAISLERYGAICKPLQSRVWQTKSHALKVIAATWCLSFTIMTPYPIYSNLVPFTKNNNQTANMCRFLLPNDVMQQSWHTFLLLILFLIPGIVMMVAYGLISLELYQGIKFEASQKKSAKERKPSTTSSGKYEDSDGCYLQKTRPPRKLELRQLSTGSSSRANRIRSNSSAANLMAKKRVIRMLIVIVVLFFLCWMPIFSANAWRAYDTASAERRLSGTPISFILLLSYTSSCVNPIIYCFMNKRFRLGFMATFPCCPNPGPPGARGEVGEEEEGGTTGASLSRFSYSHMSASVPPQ
# [7] = target: Aldo-keto reductase family 1 member B1 (Rattus norvegicus, UniProt P07943); assay type: tissue-based, Lens of camera-type eye;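 further: inhibition of aldose reductase enzyme activity, measured with DL-glyceraldehyde as the substrate; in other assays of this panel Not Active means under 50% inhibition at 10 µM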
# [8] = target: Cannabinoid receptor 1 (Homo sapiens, UniProt P21554); assay type: cell membranes, Membrane; settings: chem-1; further: in other assays of this panel Not Active means under 50% inhibition at 10 µM
# [9] = target: T3, Calcitonin receptor (Homo sapiens, UniProt P30988); assay type: cell membranes, Membrane; settings: t47d; further: in other assays of this panel Not Active means under 50% inhibition at 10 µM
# T3 sequence (P30988 whole entry): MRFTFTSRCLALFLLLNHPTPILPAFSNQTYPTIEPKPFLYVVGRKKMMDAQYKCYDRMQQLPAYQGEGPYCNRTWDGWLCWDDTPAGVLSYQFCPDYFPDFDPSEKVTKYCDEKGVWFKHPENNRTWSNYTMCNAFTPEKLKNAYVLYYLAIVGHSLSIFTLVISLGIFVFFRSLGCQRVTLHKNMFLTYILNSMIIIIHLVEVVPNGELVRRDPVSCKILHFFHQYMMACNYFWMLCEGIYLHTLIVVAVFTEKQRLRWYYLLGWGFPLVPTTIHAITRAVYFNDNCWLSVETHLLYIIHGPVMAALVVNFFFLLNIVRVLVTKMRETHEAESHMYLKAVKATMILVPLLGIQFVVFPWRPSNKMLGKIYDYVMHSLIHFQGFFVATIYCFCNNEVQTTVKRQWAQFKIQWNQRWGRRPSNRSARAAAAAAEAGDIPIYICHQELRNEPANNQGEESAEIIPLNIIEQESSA
# [10] = target: T4, Thromboxane-A synthase (Homo sapiens, UniProt P24557); experiment: biochemical; assay type: tissue-based, Platelet; settings: platelet
# T4 sequence (P24557 whole entry): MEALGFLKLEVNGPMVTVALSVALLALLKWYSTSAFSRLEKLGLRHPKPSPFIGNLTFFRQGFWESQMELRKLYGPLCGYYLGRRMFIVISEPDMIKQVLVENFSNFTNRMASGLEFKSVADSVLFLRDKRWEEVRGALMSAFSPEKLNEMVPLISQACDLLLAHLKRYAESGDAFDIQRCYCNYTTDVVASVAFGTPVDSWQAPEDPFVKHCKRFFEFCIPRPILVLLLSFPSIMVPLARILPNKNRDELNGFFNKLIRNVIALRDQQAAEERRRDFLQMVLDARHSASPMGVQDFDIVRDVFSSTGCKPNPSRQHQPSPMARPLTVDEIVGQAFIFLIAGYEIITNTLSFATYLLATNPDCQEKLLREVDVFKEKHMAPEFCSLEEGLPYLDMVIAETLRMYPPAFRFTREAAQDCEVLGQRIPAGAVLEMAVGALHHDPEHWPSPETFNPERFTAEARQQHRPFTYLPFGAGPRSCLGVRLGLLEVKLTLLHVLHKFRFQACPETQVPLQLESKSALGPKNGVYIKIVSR
# [11] = DRUGMATRIX: Tumor Necrosis Factor (TNF), Non-Selective radioligand binding (ligand: [125I] TNF-alpha); assay type: cell membranes, Membrane; settings: u-937; Not Active = under 50% inhibition at 10 µM
# [12] = target: Cytochrome P450 2E1 (Homo sapiens, UniProt P05181); settings: bti-tn-5b1-4; further: in other assays of this panel Not Active means under 50% inhibition at 10 µM
# [13] = DRUGMATRIX: Sodium/nucleoside co-transporter radioligand binding (ligand: nitrobenzylthioinosine); assay type: cell membranes, Cavia porcellus, Dunkin-Hartley, Cerebral cortex, Membrane; settings: Not Active = under 50% inhibition at 10 µM
# [14] = target: D(3) dopamine receptor (Homo sapiens, UniProt P35462); experiment: DRUGMATRIX: Dopamine D3 radioligand binding (ligand: [3H] Spiperone); assay type: cell membranes, CHO, Membrane; settings: cho
# [15] = target: Adenosine receptor A2a (Homo sapiens, UniProt P29274); experiment: DRUGMATRIX: Adenosine A2A radioligand binding (ligand: […]); assay type: cell membranes, HEK293, Membrane; settings: hek293; Not Active = under 50% inhibition at 10 µM
# Adenosine receptor A2a, sequence (P29274 whole entry): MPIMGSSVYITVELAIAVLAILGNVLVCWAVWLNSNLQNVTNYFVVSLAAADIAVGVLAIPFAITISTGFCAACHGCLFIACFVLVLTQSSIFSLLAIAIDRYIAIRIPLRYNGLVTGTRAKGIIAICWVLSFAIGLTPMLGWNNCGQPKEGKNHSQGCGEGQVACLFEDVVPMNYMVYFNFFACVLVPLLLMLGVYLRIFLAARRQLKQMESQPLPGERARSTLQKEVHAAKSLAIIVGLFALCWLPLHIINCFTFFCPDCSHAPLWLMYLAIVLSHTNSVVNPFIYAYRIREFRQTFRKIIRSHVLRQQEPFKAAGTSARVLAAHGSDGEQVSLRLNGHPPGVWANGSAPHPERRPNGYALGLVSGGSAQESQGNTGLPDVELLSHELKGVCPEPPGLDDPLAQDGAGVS
# 5-hydroxytryptamine receptor 6, sequence (P50406 whole entry): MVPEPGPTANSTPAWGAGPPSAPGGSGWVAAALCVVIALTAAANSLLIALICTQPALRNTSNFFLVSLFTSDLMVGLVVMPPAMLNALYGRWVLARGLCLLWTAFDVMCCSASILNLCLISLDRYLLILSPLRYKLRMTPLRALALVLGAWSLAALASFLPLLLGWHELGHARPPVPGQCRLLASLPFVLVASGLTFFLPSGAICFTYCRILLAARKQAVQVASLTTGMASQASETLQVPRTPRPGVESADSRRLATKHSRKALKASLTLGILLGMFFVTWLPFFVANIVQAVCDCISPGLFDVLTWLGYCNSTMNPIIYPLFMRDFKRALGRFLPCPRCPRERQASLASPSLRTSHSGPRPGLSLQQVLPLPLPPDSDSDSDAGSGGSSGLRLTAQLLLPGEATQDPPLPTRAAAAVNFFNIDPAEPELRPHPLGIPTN
# Cannabinoid receptor 1, sequence (P21554 whole entry): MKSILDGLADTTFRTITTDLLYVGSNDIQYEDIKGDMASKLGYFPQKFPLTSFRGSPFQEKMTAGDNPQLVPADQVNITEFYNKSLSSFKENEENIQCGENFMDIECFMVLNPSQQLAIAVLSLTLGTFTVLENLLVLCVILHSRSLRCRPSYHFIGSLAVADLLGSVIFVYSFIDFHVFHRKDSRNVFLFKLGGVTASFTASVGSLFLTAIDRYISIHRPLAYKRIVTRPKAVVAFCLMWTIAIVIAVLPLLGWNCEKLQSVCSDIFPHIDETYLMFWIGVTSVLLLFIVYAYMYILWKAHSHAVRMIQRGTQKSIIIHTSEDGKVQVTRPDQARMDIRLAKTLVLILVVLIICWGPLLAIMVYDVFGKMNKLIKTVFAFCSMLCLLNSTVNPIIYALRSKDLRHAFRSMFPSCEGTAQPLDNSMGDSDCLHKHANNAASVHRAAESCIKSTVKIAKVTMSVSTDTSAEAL
# Cytochrome P450 2E1, sequence (P05181 whole entry): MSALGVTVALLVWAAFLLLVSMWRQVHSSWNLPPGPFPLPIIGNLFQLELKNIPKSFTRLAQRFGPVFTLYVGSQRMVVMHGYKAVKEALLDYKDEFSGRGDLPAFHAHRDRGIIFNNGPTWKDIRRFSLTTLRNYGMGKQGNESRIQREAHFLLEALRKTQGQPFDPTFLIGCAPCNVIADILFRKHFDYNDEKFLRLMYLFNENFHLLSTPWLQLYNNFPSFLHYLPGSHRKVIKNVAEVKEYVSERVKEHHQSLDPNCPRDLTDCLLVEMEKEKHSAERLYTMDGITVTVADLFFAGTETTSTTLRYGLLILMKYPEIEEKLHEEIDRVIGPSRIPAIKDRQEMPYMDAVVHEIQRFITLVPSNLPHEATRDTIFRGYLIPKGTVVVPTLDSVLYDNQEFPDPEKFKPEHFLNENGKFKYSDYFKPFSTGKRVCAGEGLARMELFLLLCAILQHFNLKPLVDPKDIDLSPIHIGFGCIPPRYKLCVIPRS
# D(3) dopamine receptor, sequence (P35462 whole entry): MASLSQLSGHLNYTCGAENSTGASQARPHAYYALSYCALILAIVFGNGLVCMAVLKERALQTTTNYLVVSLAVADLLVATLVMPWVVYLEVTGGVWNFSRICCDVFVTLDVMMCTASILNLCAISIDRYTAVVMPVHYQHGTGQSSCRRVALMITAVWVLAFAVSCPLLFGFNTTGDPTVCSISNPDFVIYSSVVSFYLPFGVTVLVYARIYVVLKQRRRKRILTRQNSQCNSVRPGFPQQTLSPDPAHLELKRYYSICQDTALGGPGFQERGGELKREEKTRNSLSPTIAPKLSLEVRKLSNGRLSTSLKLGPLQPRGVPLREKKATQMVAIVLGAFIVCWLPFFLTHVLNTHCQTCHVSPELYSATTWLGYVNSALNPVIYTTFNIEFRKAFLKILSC
# Epidermal growth factor receptor, sequence (P00533 whole entry): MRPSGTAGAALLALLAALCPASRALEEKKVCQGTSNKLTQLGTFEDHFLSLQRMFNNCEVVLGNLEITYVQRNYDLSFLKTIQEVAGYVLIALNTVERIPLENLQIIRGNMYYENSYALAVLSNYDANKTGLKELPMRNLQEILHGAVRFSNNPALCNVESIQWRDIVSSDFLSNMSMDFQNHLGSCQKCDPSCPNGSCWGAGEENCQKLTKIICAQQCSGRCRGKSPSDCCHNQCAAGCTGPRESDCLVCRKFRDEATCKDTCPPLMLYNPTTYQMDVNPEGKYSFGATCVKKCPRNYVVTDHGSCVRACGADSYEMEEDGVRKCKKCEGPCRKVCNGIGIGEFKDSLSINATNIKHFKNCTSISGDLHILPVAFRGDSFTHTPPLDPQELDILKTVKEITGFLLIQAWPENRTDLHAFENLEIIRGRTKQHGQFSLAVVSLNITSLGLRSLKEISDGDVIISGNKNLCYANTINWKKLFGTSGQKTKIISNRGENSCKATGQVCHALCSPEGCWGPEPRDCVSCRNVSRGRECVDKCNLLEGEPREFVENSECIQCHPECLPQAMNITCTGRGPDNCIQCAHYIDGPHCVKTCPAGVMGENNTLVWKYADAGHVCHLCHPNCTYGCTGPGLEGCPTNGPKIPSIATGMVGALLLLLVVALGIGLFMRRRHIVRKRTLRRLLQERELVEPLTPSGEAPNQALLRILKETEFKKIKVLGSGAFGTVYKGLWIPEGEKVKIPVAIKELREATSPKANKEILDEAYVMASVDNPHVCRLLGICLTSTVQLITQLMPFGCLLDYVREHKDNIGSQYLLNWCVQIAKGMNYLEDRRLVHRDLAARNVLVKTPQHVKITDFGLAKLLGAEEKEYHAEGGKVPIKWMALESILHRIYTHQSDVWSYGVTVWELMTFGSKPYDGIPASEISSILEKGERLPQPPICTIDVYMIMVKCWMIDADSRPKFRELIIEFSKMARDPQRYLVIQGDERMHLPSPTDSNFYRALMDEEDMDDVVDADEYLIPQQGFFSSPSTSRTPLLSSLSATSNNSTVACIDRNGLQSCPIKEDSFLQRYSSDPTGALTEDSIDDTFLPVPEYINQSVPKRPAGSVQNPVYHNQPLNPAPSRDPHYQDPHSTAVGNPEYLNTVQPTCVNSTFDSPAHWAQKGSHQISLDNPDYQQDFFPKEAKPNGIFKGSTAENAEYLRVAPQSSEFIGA
# Insulin receptor, sequence (P15127 27-759 limits assumed): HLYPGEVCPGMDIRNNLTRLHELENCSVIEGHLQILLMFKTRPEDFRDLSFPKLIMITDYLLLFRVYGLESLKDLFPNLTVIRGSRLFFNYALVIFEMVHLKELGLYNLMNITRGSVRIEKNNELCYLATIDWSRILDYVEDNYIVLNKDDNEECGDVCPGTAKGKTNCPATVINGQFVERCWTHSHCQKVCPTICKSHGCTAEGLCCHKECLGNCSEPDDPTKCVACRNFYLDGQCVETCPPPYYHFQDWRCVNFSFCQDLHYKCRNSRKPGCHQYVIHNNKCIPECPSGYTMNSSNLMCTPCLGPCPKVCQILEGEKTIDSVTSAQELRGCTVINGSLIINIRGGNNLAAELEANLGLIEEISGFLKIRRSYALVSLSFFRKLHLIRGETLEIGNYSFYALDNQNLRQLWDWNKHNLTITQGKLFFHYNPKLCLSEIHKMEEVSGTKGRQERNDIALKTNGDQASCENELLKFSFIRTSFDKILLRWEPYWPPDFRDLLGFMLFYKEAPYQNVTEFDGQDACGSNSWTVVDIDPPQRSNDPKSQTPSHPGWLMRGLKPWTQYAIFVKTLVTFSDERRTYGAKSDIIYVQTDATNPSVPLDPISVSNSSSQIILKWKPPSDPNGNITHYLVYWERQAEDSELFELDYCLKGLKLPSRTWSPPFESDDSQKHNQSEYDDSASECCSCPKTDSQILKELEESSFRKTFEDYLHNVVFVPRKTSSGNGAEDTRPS
# Insulin receptor, sequence (P15127 764-1383 limits assumed): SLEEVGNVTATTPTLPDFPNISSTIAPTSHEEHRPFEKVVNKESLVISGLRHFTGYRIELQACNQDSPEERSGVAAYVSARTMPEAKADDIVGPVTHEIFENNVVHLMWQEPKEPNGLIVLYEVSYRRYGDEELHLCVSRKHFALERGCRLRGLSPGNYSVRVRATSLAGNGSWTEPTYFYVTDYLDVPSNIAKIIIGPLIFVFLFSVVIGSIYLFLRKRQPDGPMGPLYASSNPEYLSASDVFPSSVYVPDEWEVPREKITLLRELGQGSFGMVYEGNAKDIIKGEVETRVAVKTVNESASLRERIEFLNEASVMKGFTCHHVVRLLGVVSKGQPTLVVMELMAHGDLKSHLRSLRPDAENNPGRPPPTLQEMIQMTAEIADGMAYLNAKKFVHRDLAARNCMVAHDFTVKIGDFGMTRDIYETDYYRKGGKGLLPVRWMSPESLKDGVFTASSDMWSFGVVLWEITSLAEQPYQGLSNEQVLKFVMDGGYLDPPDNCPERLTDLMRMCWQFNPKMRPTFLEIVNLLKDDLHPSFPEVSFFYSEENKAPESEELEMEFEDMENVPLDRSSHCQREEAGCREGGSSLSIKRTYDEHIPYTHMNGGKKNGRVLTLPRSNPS
compound,measurement,setting,value
c1ccc2[nH]c(-c3cscn3)nc2c1 [THIABENDAZOLE],IC50,[1],Not Active
same,IC50,[2],Not Active
same,IC50,[3],Not Active
same,IC50,[4],Not Active
same,IC50,[5],Not Active
same,Ki,[5],Not Active
same,IC50,[6],Not Active
same,IC50,[7],Not Active
same,IC50,[8],Not Active
same,IC50,[9],Not Active
same,IC50,[10],Not Active
same,IC50,[11],Not Active
same,Ki,[11],Not Active
same,IC50,[12],Not Active
same,Ki,[12],Not Active
same,IC50,[13],Not Active
same,Ki,[13],Not Active
same,IC50,[14],Not Active
same,IC50,[15],Not Active
Cc1ccc(C(=O)C(C)CN2CCCCC2)cc1 (stereo not drawn) [TOLPERISONE],IC50,[1],Not Active
same,IC50,[2],Not Active
same,IC50,[3],Not Active
same,IC50,[4],Not Active
same,IC50,[5]; read-out: IC50,3360 nM
same,Ki,[5]; read-out: Ki,2070 nM
same,IC50,[6],Not Active
same,IC50,[7],Not Active
same,IC50,[8],Not Active
same,IC50,[9],Not Active
same,IC50,[10],Not Active
same,IC50,[11],Not Active
same,Ki,[11],Not Active
same,IC50,[12],Not Active
same,Ki,[12],Not Active
same,IC50,[13],Not Active
same,Ki,[13],Not Active
same,IC50,[14],Not Active
same,IC50,[15],Not Active
NC(CO)(CO)CO [TROMETHAMINE],IC50,[1],Not Active
same,IC50,[2],Not Active
same,IC50,[3],Not Active
same,IC50,[4],Not Active
same,IC50,[5],Not Active
same,Ki,[5],Not Active
same,IC50,[6],Not Active
same,IC50,[7],Not Active
same,IC50,[8],Not Active
same,IC50,[9],Not Active
same,IC50,[10],Not Active
same,IC50,[11],Not Active
same,Ki,[11],Not Active
same,IC50,[12],Not Active
same,Ki,[12],Not Active
same,IC50,[13],Not Active
same,Ki,[13],Not Active
same,IC50,[14],Not Active
same,IC50,[15],Not Active
CN1[C@@H]2CC[C@H]1C[C@@H](OC(=O)c1c[nH]c3ccccc13)C2 [TROPISETRON],IC50,[1],Not Active
same,IC50,[2],Not Active
same,IC50,[3],Not Active
same,IC50,[4],Not Active
same,IC50,[5],Not Active
same,Ki,[5],Not Active
same,IC50,[6],Not Active
same,IC50,[7],Not Active
same,IC50,[8],Not Active
same,IC50,[9],Not Active
same,IC50,[10],Not Active
same,IC50,[11],Not Active
same,Ki,[11],Not Active
same,IC50,[12],Not Active
same,Ki,[12],Not Active
same,IC50,[13],Not Active
same,Ki,[13],Not Active
same,IC50,[14],Not Active
same,IC50,[15],Not Active
COc1cc(C(=O)NC2CCCNC2)cc(OC)c1OC (stereo not drawn) [TROXIPIDE],IC50,[1],Not Active
same,IC50,[2],Not Active
same,IC50,[3],Not Active
same,IC50,[4],Not Active
same,IC50,[5],Not Active
same,Ki,[5],Not Active
same,IC50,[6],Not Active
same,IC50,[7],Not Active
same,IC50,[8],Not Active
same,IC50,[9],Not Active
same,IC50,[10],Not Active
same,IC50,[11],Not Active
same,Ki,[11],Not Active
same,IC50,[12],Not Active
same,Ki,[12],Not Active
same,IC50,[13],Not Active
same,Ki,[13],Not Active
same,IC50,[14],Not Active
same,IC50,[15],Not Active
CC(C)[C@H](N)C(=O)OCCOCn1cnc2c(=O)nc(N)[nH]c21 [VALACYCLOVIR],IC50,[1],Not Active
same,IC50,[2],Not Active
same,IC50,[3],Not Active
same,IC50,[4],Not Active
same,IC50,[5],Not Active
same,Ki,[5],Not Active
same,IC50,[6],Not Active
same,IC50,[7],Not Active
same,IC50,[8],Not Active
same,IC50,[9],Not Active
same,IC50,[10],Not Active
same,IC50,[11],Not Active
same,Ki,[11],Not Active
same,IC50,[12],Not Active
same,Ki,[12],Not Active
same,IC50,[13],Not Active
same,Ki,[13],Not Active
same,IC50,[14],Not Active
same,IC50,[15],Not Active
CN[C@H](CC(C)C)C(=O)N[C@H]1C(=O)N[C@@H](CC(N)=O)C(=O)N[C@H]2C(=O)N[C@H]3C(=O)N[C@H](C(=O)N[C@H](C(=O)O)c4cc(O)cc(O)c4-c4cc3ccc4O)[C@H](O)c3ccc(c(Cl)c3)Oc3cc2cc(c3O[C@@H]2O[C@H](CO)[C@@H](O)[C@H](O)[C@H]2O[C@H]2C[C@](C)(N)[C@H](O)[C@H](C)O2)Oc2ccc(cc2Cl)[C@H]1O [VANCOMYCIN],IC50,[1],Not Active
same,IC50,[2],Not Active
same,IC50,[3],Not Active
same,IC50,[4],Not Active
same,IC50,[5],Not Active
same,Ki,[5],Not Active
same,IC50,[6],Not Active
same,IC50,[7],Not Active
same,IC50,[8],Not Active
same,IC50,[9],Not Active
same,IC50,[10],Not Active
same,IC50,[11],Not Active
same,Ki,[11],Not Active
same,IC50,[12],Not Active
same,Ki,[12],Not Active
same,IC50,[13],Not Active
same,Ki,[13],Not Active
same,IC50,[14],Not Active
same,IC50,[15],Not Active
